In patent US20240166652A1, “MODULATORS OF THE INTEGRATED STRESS PATHWAY” (Calico Life Sciences LLC, priority 2017, published 2024):

tested on: ATF4 luciferase reporter in HEK293T cells; assay: ATF4-Luc assay (ATF4 luciferase reporter, tunicamycin-treated HEK293T cells); assay type: cell-based, human; conditions: Homo sapiens, HEK-293T; HEK293T cells carrying the ATF4 luciferase reporter, 1 μg/mL tunicamycin, 7 hours

| SMILES | EC50 |
| --- | --- |
| Cc1ccc(OCC(=O)NC23CCC(NC(=O)COc4ccc(F)c(F)c4)(CC2)[C@@H](O)C3)cc1 [Compound 788, 2-(3,4-difluorophenoxy)-N-{(2S)-2-hydroxy-4-[2-(4-methylphenoxy)acetamido]bicyclo[2.2.2]octan-1-yl}acetamide] | < 10 nM |
| O=C(CO)Nc1cc(Cl)ccc1OCC(=O)NC12CC(NC(=O)COc3ccc(Cl)c(F)c3)(C1)C2 [Compound 789, 2-(4-chloro-3-fluorophenoxy)-N-(3-{2-[4-chloro-2-(2-hydroxyacetamido)phenoxy]acetamido}bicyclo[1.1.1]pentan-1-yl)acetamide] | 50 to 250 nM |
| O=C(COc1ccc(F)c(C(F)F)c1)NC12CCC(NC(=O)COc3ccc(Cl)c(F)c3)(CC1)[C@@H](O)C2 [Compound 790, 2-(4-chloro-3-fluorophenoxy)-N-[(2S)-4-{2-[3-(difluoromethyl)-4-fluorophenoxy]acetamido}-2-hydroxybicyclo[2.2.2]octan-1-yl]acetamide] | < 10 nM |
| O=C(CO)NC(COC(=O)NC12CC(NC(=O)COc3ccc(Cl)c(F)c3)(C1)C2)c1ccc(Cl)cc1 (stereo not drawn) [Compound 791, 2-(4-chlorophenyl)-2-(2-hydroxyacetamido)ethyl {3-[2-(4-chloro-3-fluorophenoxy)acetamido]bicyclo[1.1.1]pentan-1-yl}carbamate] | > 2000 nM |
| COc1cccc(OCC(=O)NC23CCC(NC(=O)COc4ccc(Cl)c(F)c4)(CC2)[C@@H](O)C3)n1 [Compound 792, 2-(4-chloro-3-fluorophenoxy)-N-[(2S)-2-hydroxy-4-{2-[(6-methoxypyridin-2-yl)oxy]acetamido}bicyclo[2.2.2]octan-1-yl]acetamide] | < 10 nM |
| COc1cc(Cl)ccc1OCC(=O)NC12CCC(NC(=O)COc3ccc(Cl)c(F)c3)(CC1)[C@@H](O)C2 [Compound 793, 2-(4-chloro-3-fluorophenoxy)-N-{(2S)-4-[2-(4-chloro-2-methoxyphenoxy)acetamido]-2-hydroxybicyclo[2.2.2]octan-1-yl}acetamide] | < 10 nM |
| COc1cc(OCC(=O)NC23CCC(NC(=O)COc4ccc(Cl)c(F)c4)(CC2)[C@@H](O)C3)ccc1F [Compound 794, 2-(4-chloro-3-fluorophenoxy)-N-{(2S)-4-[2-(4-fluoro-3-methoxyphenoxy)acetamido]-2-hydroxybicyclo[2.2.2]octan-1-yl}acetamide] | < 10 nM |
| O=C(COc1ccc(Cl)c(F)c1)NC12CCC(NC(=O)COc3ccc(F)c(OC(F)F)c3)(CC1)[C@@H](O)C2 [Compound 795, 2-(4-chloro-3-fluorophenoxy)-N-[(3S)-4-{2-[3-(difluoromethoxy)-4-fluorophenoxy]acetamido}-3-hydroxybicyclo[2.2.2]octan-1-yl]acetamide] | < 10 nM |
| O=C(COc1ccc(F)c(F)c1)NC12CCC(NC(=O)COc3ccc(F)c(OC(F)F)c3)(CC1)[C@@H](O)C2 [Compound 796, 2-[3-(difluoromethoxy)-4-fluorophenoxy]-N-{(2S)-4-[2-(3,4-difluorophenoxy)acetamido]-2-hydroxybicyclo[2.2.2]octan-1-yl}acetamid6] | 10 to 50 nM |
| O=C(COc1ccc(Cl)c(F)c1)NC12CC(NC(=O)COc3ccc(Cl)cc3NCCO)(C1)C2 [Compound 797, 2-(4-chloro-3-fluorophenoxy)-N-[3-(2-{4-chloro-2-[(2-hydroxyethyl)amino]phenoxy}acetamido)bicyclo[1.1.1]pentan-1-yl]acetamide] | 50 to 250 nM |
| O=C(COc1ccc2c(c1)OC(F)(F)O2)NC12CCC(NC(=O)COc3ccc(F)cc3)(CC1)[C@@H](O)C2 [Compound 798, 2-[(2,2-difluoro-2H-1,3-benzodioxol-5-yl)oxy]-N-{(3S)-4-[2-(4-fluorophenoxy)acetamido]-3-hydroxybicyclo[2.2.2]octan-1-yl}acetamide] | < 10 nM |
| O=C(COc1ccc2c(c1)OC(F)(F)O2)NC12CCC(NC(=O)COc3ccc(Cl)cc3)(CC1)[C@@H](O)C2 [Compound 799, 2-(4-chlorophenoxy)-N-[(2S)-4-{2-[(2,2-difluoro-2H-1,3-benzodioxol-5-yl)oxy]acetamido}-2-hydroxybicyclo[2.2.2]octan-1-yl]acetamide] | < 10 nM |
| COCC(=O)Nc1cc(Cl)ccc1OCC(=O)NC12CC(NC(=O)COc3ccc(Cl)c(F)c3)(C1)C2 [Compound 800, 2-(4-chloro-3-fluorophenoxy)-N-(3-{2-[4-chloro-2-(2-methoxyacetamido)phenoxy]acetamido}bicyclo[1.1.1]pentan-1-yl)acetamide] | 50 to 250 nM |
| O=C(COc1ccc(OC(F)F)c(F)c1)NC12CCC(NC(=O)COc3ccc(Cl)c(F)c3)(CC1)[C@@H](O)C2 [Compound 801, 2-(4-chloro-3-fluorophenoxy)-N-[(2S)-4-{2-[4-(difluoromethoxy)-3-fluorophenoxy]acetamido}-2-hydroxybicyclo[2.2.2]octan-1-yl]acetamide] | < 10 nM |
| O=C(COc1ccc(Cl)c(F)c1)NC12CCC(NC(=O)COc3ccc(OC(F)F)c(F)c3)(CC1)[C@@H](O)C2 [Compound 802, 2-(4-chloro-3-fluorophenoxy)-N-[(3S)-4-{2-[4-(difluoromethoxy)-3-fluorophenoxy]acetamido}-3-hydroxybicyclo[2.2.2]octan-1-yl]acetamide] | < 10 nM |
| O=C(COc1ccc(F)c(F)c1)NC12CCC(NC(=O)COc3ccc(OC(F)F)c(F)c3)(CC1)[C@@H](O)C2 [Compound 803, 2-[4-(difluoromethoxy)-3-fluorophenoxy]-N-{(2S)-4-[2-(3,4-difluorophenoxy)acetamido]-2-hydroxybicyclo[2.2.2]octan-1-yl}acetamide] | < 10 nM |
| O=C(COc1ccc2c(c1)OC(F)(F)O2)NC12CCC(NC(=O)COc3ccc(F)c(F)c3)(CC1)[C@@H](O)C2 [Compound 804, 2-[(2,2-difluoro-2H-1,3-benzodioxol-5-yl)oxy]-N-{(3S)-4-[2-(3,4-difluorophenoxy)acetamido]-3-hydroxybicyclo[2.2.2]octan-1-yl}acetamide] | < 10 nM |
| O=C(COc1ccc(Cl)c(F)c1)NC12CC(NC(=O)COc3ccccc3OCCO)(C1)C2 [Compound 805, 2-(4-chloro-3-fluorophenoxy)-N-(3-{2-[2-(2-hydroxyethoxy)phenoxy]acetamido}bicyclo[1.1.1]pentan-1-yl)acetamide] | 500 to 2000 nM |
| O=C(COc1ccc(Cl)c(F)c1)NC12CCC(NC(=O)COc3cccnn3)(CC1)[C@@H](O)C2 [Compound 806, 2-(4-chloro-3-fluorophenoxy)-N-[(3S)-3-hydroxy-4-{2-[(pyridazin-3-yl)oxy]acetamido}bicyclo[2.2.2]octan-1-yl]acetamide] | 500 to 2000 nM |
| O=C(CC(=O)c1ccc(Cl)cc1)NC12CCC(NC(=O)COc3ccc(Cl)c(F)c3)(CC1)[C@@H](O)C2 [Compound 807, N-{(3S)-4-[2-(4-chloro-3-fluorophenoxy)acetamido]-3-hydroxybicyclo[2.2.2]octan-1-yl}-3-(4-chlorophenyl)-3-oxopropanamide] | 10 to 50 nM |
| O=C(COc1ccc(F)c(OC(F)F)c1)NC12CCC(NC(=O)COc3ccc(Cl)c(F)c3)(CC1)[C@@H](O)C2 [Compound 808, 2-(4-chloro-3-fluorophenoxy)-N-[(2S)-4-{2-[3-(difluoromethoxy)-4-fluorophenoxy]acetamido}-2-hydroxybicyclo[2.2.2]octan-1-yl]acetamide] | < 10 nM |
